Results: patent publication US8168592B2 (Amgen Inc., priority 2005, dated 2012)
Like-named read-outs stand apart in the source and are kept apart here. Square brackets hold non-standard residues; d marks the D form. Ends that are not written are not given here. Peptide text beside a SMILES is read from it. Oic = O=C(O)[C@@H]1C[C@@H]2CCCC[C@@H]2N1; 1Nal = N[C@@H](Cc1cccc2ccccc12)C(=O)O; hArg = N=C(N)NCCCC[C@H](N)C(=O)O; Cit = NC(=O)NCCC[C@H](N)C(=O)O

Target: T1, CGRP1 receptor (Homo sapiens, UniProt O60894+Q16602)
T1 construct: SK-N-MC cells express CRLR and RAMP1, which form CGRP1 receptor; endogenous in cells; host or cells: SK-N-MC human neuroblastoma cells
T1 sequence (Q16602 23-461): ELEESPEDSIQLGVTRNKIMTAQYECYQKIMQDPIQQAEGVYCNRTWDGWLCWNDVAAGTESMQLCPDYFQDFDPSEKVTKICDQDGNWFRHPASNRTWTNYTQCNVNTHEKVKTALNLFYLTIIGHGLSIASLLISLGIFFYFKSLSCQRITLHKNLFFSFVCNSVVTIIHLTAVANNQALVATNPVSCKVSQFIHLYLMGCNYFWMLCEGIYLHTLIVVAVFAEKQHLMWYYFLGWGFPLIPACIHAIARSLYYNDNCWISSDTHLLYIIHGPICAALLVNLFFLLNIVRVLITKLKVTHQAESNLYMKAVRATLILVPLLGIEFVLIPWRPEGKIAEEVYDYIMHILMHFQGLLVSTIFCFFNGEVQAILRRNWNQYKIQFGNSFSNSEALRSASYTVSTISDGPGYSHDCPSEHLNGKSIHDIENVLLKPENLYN
T1 sequence (O60894 27-148): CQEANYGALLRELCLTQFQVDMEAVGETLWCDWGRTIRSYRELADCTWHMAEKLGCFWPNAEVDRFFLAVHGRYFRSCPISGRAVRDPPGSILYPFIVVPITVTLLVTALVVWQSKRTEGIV
Assay: in vitro CGRP1 receptor mediated cAMP assay in SK-N-MC cells
Format: cell-based
Procedure, shortened: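 Human SK-N-MC neuroblastoma cells, which endogenously express CRLR/RAMP1, were plated two days before assay and preincubated in plasma-free medium for 15 minutes at room temperature. Cells were then lysed for 30 minutes at 37° C, and cAMP in the lysates was quantified by competitive cAMP-AP chemiluminescent ELISA.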

[1] = Table 2C, unconjugated peptide, read-out: Peptide IC50

CC(=O)N[C@@H](Cc1c[nH]c2ccccc12)C(=O)N[C@H](C(=O)N[C@H](C(=O)N[C@@H](Cc1c[nH]cn1)C(=O)N[C@@H](CCCNC(N)=O)C(=O)N[C@@H](CC(C)C)C(=O)N[C@@H](C)C(=O)NCC(=O)N[C@@H](CC(C)C)C(=O)N[C@@H](CC(C)C)C(=O)N[C@@H](CO)C(=O)N[C@@H](CCCNC(N)=O)C(=O)N[C@@H](CO)C(=O)NCC(=O)NCC(=O)N[C@H](C(=O)N[C@H](C(=O)N[C@@H](CCCCNC(=N)N)C(=O)N[C@@H](CCCCN)C(=O)N[C@@H](CC(N)=O)C(=O)N[C@@H](Cc1ccccc1)C(=O)N[C@H](C(=O)N1CCC[C@H]1C(=O)N[C@H](C(=O)N[C@@H](CC(=O)O)C(=O)N[C@H](C(=O)NCC(=O)N1[C@H](C(=O)N[C@@H](Cc2cccc3ccccc23)C(=O)N[C@@H](C)C(=O)N[C@@H](Cc2ccccc2)C(N)=O)C[C@@H]2CCCC[C@@H]21)C(C)C)[C@@H](C)O)C(C)C)C(C)C)C(C)C)[C@@H](C)O)C(C)C [compound 933] (Ac-WVTH[Cit]LAGLLS[Cit]SGGVV[hArg]KNFVPTDVG[Oic][1Nal]AF-NH2) was tested, and the IC50 [1] was 0.88 nM.
With CC(=O)N[C@@H](Cc1c[nH]c2ccccc12)C(=O)N[C@H](C(=O)N[C@H](C(=O)N[C@@H](Cc1cnc[nH]1)C(=O)N[C@@H](CCCNC(=N)N)C(=O)N[C@@H](CC(C)C)C(=O)N[C@@H](C)C(=O)NCC(=O)N[C@@H](CC(C)C)C(=O)N[C@@H](CC(C)C)C(=O)N[C@@H](CO)C(=O)N[C@@H](CCCNC(N)=O)C(=O)N[C@@H](CO)C(=O)NCC(=O)NCC(=O)N[C@H](C(=O)N[C@H](C(=O)N[C@@H](CCCN=C(N)N)C(=O)N[C@@H](CCCCN)C(=O)N[C@@H](CC(N)=O)C(=O)N[C@@H](Cc1ccccc1)C(=O)N[C@H](C(=O)N1CCC[C@H]1C(=O)N[C@H](C(=O)N[C@@H](CC(=O)O)C(=O)N[C@H](C(=O)NCC(=O)N1CCC[C@H]1C(=O)N[C@@H](Cc1ccccc1)C(=O)N[C@@H](C)C(=O)N[C@@H](Cc1ccccc1)C(N)=O)C(C)C)[C@@H](C)O)C(C)C)C(C)C)C(C)C)[C@@H](C)O)C(C)C [compound 862] the IC50 [1] was 0.58 nM.
Compound “Ac-WVTHRLAGLLSRSGGVKRNNFVPTDVGPFAF-NH2 [compound 823]” has an IC50 (Table 2D, read-out: IC50) of 0.51 nM.
With “SEQ ID NO:24 (WVTHRLAGLLSXSGGVVRKNFVPTDVGPFAF; CGRP peptide; MOD_RES (1)..(1): …ON; MISC_FEATURE (12)..(12): xaa=homoarginine; MISC_FEATURE (19)..(19): PEGylated; MOD_RES (31)..(31): AMIDATION)” the “antagonist activity in cAMP assay, in words” value was “retaining their CGRP1 receptor antagonist activity”.
In the case of “SEQ ID NO:22 (WVTHXLAGLLSRSGGVVRKNFVPTDVGPFAF; CGRP peptide; MOD_RES (1)..(1): …ON; MISC_FEATURE (5)..(5): xaa=homoarginine; MISC_FEATURE (19)..(19): PEGylated; MOD_RES (31)..(31): AMIDATION)”, the “antagonist activity in cAMP assay, in words” value is reported as “retaining their CGRP1 receptor antagonist activity”.
Work on “Ac-WVTHRLAGLLSRSGGVVRKNFVPTDVGSKAF-NH2 [compound 915]” yielded an IC50 [1] of 1.15 nM.
“SEQ ID NO:3 (CGGGGGGGVTHRLAGLLSRSGGVVKNNFVPTDVGPFAF-NH2)” was tested, and the “improved potency relative to native CGRP(8-37) (SEQ ID NO:1)” value (cAMP assay) was “more than 6 fold”.
Compound CC(=O)N[C@@H](Cc1c[nH]c2ccccc12)C(=O)N[C@H](C(=O)N[C@H](C(=O)N[C@@H](Cc1cnc[nH]1)C(=O)N[C@@H](CCCNC(N)=O)C(=O)N[C@@H](CC(C)C)C(=O)N[C@@H](C)C(=O)NCC(=O)N[C@@H](CC(C)C)C(=O)N[C@@H](CC(C)C)C(=O)N[C@@H](CO)C(=O)N[C@@H](CCCNC(N)=O)C(=O)N[C@@H](CO)C(=O)NCC(=O)NCC(=O)N[C@H](C(=O)N[C@H](C(=O)N[C@@H](CCCCN=C(N)N)C(=O)N[C@@H](CCCCN)C(=O)N[C@@H](CC(N)=O)C(=O)N[C@@H](Cc1ccccc1)C(=O)N[C@H](C(=O)N1CCC[C@H]1C(=O)N[C@H](C(=O)N[C@@H](CC(=O)O)C(=O)N[C@H](C(=O)NCC(=O)N1CSC[C@H]1C(=O)N[C@@H](Cc1ccccc1)C(=O)N[C@@H](C)C(=O)N[C@@H](Cc1ccccc1)C(N)=O)C(C)C)[C@@H](C)O)C(C)C)C(C)C)C(C)C)[C@@H](C)O)C(C)C [compound 671] has an IC50 (Table 2A, read-out: IC50) of 2.15 nM.
